One assay concerns rodents. The conditions noted are these: elevated plus maze and light/dark test in rodents; cited from earlier work.
The subject of assay [1] is mouse, gerbils and marmosets. The conditions noted are these: cited from earlier work.
A further assay concerns the target T1, human NK2 receptor (Homo sapiens, UniProt P21452).
T1 construct: purchased Perkin Elmer biosignal Inc. 6110510
T1 sequence (P21452 1-398): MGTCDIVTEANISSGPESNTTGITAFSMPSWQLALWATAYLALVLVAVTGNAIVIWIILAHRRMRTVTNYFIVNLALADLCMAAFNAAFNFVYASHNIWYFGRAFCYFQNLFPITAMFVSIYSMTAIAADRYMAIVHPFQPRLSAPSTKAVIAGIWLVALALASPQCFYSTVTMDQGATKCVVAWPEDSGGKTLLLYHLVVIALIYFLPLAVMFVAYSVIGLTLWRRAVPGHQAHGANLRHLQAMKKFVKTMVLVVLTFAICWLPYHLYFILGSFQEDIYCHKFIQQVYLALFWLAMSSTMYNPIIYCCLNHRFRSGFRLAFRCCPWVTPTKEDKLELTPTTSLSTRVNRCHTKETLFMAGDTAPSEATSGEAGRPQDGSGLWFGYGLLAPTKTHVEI
Description: [3H]SR48968 competition binding assay. To be noted: [3H]SR48968 displacement, membranes of CHO cells stably expressing recombinant human NK2 receptor; Ki from IC50 by Cheng-Prussoff. An outline of the steps: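 Membranes from CHO cells stably expressing recombinant human NK2 were incubated 75 min at RT with [3H]SR48968 at its KD and 10 compound concentrations (0.0003–10 μM) in Tris-HCl pH 7.4, MnCl2, chymostatin, BSA. Filter-bound radioactivity was counted; Hill-fitted IC50 converted to Ki via Cheng-Prusoff.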

pKi: −log10 of the molar value.

As usually defined, the pKi is −log10 of the Ki, conventionally taken in molar units.

In the case of `CC(=O)NC1(c2ccccc2)CCN(CC[C@H](CN(C)C(=O)c2ccccc2)c2ccc(Cl)c(Cl)c2)CC1` [Saredutant], the “efficacy in exploration based procedures sensitive to anxiolytics” value with rodents is given as “effective”. For the same compound, in assay [1], the “efficacy in procedures sensitive to anti-depressants” value is on record as “Efficacy”. With `CN(C(=O)CCc1ccc(F)cc1)[C@H]1CN(C(=O)C2CCN(C(=O)C3(C)CC3)CC2)C[C@@H]1c1ccc(Cl)c(Cl)c1` (racemic) [Example 102, N-{(3RS,4SR)-4-(3,4-Dichloro-phenyl)-1-[1-(1-methyl-cyclopropanecarbonyl)-piperidine-4-carbonyl]-pyrrolidin-3-yl}-3-(4-fluoro-phenyl)-N-methyl-propionamide], on human NK2 receptor, the pKi is 8.62. Still for that read-out and setting: next, `Cc1ccnc(C(=O)N(C)[C@@H]2CN(C(=O)c3ccc(C#N)cc3)C[C@H]2c2ccc(Cl)c(Cl)c2)c1` (racemic) [Example 63, rac-4-Methyl-pyridine-2-carboxylic acid [(3S,4R)-1-(4-cyano-benzoyl)-4-(3,4-dichloro-phenyl)-pyrrolidin-3-yl]-methyl-amide]: 8.58; `CN(C(=O)c1ccc(C#N)cc1)[C@@H]1CN(C(=O)N2CCN(S(C)(=O)=O)CC2)C[C@H]1c1ccc(Cl)c(Cl)c1` (racemic) [Example 13, rac-4-Cyano-N-[(3S,4R)-4-(3,4-dichloro-phenyl)-1-(4-methanesulfonyl-piperazine-1-carbonyl)-pyrrolidin-3-yl]-N-methyl-benzamide]: 7.63; `CN(C(=O)Cc1ccc(Cl)cc1)[C@H]1CN(C(=O)C2CCN(CC3CC3)CC2)C[C@@H]1c1ccc(Cl)c(Cl)c1` (racemic) [Example 158, 2-(4-Chloro-phenyl)-N-[(3RS,4SR)-1-(1-cyclopropylmethyl-piperidine-4-carbonyl)-4-(3,4-dichloro-phenyl)-pyrrolidin-3-yl]-N-methyl-acetamide]: 7.60. For the compound `COc1ccc(C(=O)N(C)[C@H]2CN(C(=O)C3CCN(C(C)C)CC3)C[C@@H]2c2ccc(Cl)cc2)cc1C(F)(F)F` (racemic) [Example 104, N-[(3RS,4SR)-4-(4-Chloro-phenyl)-1-(1-isopropyl-piperidine-4-carbonyl)-pyrrolidin-3-yl]-4-methoxy-N-methyl-3-trifluoromethyl-benzamide], the pKi at human NK2 receptor was 8.39.
